The results in this text go back to US10098351B2, “Herbicidal compounds” (SYNGENTA PARTICIPATIONS AG, priority 2014, dated 2018).

The structures appear in SMILES notation.

Common to all, as to format: in vivo
Assay [1] relates to Echinochloa crus-galli. The assay is described as follows: Pre-emergence herbicidal activity, ECHCG. The note with it: application pre-emergence, 1000 g/Ha, evaluated after 13 days; 5=total damage to plant, 0=no damage to plant. How it is done: (§1) Seeds of a variety of test species were sown in standard soil in pots. After cultivation for one day (pre-emergence) under controlled conditions in a glasshouse (at 24/16° C., day/night; 14 hours light; 65% humidity), the plants were sprayed with an aqueous spray solution derived from the formulation of the technical active ingredient in acetone/water (50:50) solution containing 0.5% Tween 20 (polyoxyethelyene sorbitan monolaurate, CAS RN 9005-64-5). The test plants were then grown in a glasshouse under controlled conditions (at 24/16° C., day/night; 14 hours light; 65% humidity) and watered twice daily. After 13 days, the test was evaluated (5=total damage to plant; 0=no damage to plant).

Assay [2] relates to Setaria faberi. The assay is described as follows: Post-emergence herbicidal activity, SETFA. Particulars: application post-emergence, 1000 g/Ha, evaluated after 13 days; 5=total damage to plant, 0=no damage to plant. How it is done:
(§2) Seeds of a variety of test species were sown in standard soil in pots. After 8 days cultivation (post-emergence) under controlled conditions in a glasshouse (at 24/16° C., day/night; 14 hours light; 65% humidity), the plants were sprayed with an aqueous spray solution derived from the formulation of the technical active ingredient in acetone/water (50:50) solution containing 0.5% Tween 20 (polyoxyethelyene sorbitan monolaurate, CAS RN 9005-64-5). The test plants were then grown in a glasshouse under controlled conditions (at 24/16° C., day/night; 14 hours light; 65% humidity) and watered twice daily. After 13 days, the test was evaluated (5=total damage to plant; 0=no damage to plant).

In assay [3] the test system is Echinochloa crus-galli. The assay is described as follows: Post-emergence herbicidal activity, ECHCG. Particulars: application post-emergence, 1000 g/Ha, evaluated after 13 days; 5=total damage to plant, 0=no damage to plant. How it is done: as §2
Assay [4] deals with Amaranthus retroflexus. The assay is described as follows: Post-emergence herbicidal activity, AMARE. The note with it: application post-emergence, 1000 g/Ha, evaluated after 13 days; 5=total damage to plant, 0=no damage to plant. The method, then: as §2
Assay [5] has as its system Zea mays. The assay is described as follows: Pre-emergence herbicidal activity, ZEAMX. Particulars: application pre-emergence, 1000 g/Ha, evaluated after 13 days; 5=total damage to plant, 0=no damage to plant. The method, then:
as §1

Assay [6] relates to Lolium perenne. The assay is described as follows: Post-emergence herbicidal activity, LOLPE. The note with it: application post-emergence, 1000 g/Ha, evaluated after 13 days; 5=total damage to plant, 0=no damage to plant. The method, then: as §2
Assay [7] has as its system Abutilon theophrasti. Kind of assay: Pre-emergence herbicidal activity, ABUTH. Particulars: application pre-emergence, 1000 g/Ha, evaluated after 13 days; 5=total damage to plant, 0=no damage to plant. The method, then:
as §1

Assay [8] has as its system Lolium perenne. Kind of assay: Pre-emergence herbicidal activity, LOLPE. The note with it: application pre-emergence, 1000 g/Ha, evaluated after 13 days; 5=total damage to plant, 0=no damage to plant. The method, then: as §1
Assay [9] has as its system Abutilon theophrasti. The assay is described as follows: Post-emergence herbicidal activity, ABUTH. Particulars: application post-emergence, 1000 g/Ha, evaluated after 13 days; 5=total damage to plant, 0=no damage to plant. The method, then:
as §2

In assay [10] the test system is Setaria faberi. The assay is described as follows: Pre-emergence herbicidal activity, SETFA. Particulars: application pre-emergence, 1000 g/Ha, evaluated after 13 days; 5=total damage to plant, 0=no damage to plant. The method, then:
as §1

For assay [11], the system named is Amaranthus retroflexus. Kind of assay: Pre-emergence herbicidal activity, AMARE. Particulars: application pre-emergence, 1000 g/Ha, evaluated after 13 days; 5=total damage to plant, 0=no damage to plant. The method, then:
as §1

For assay [12], the system named is Zea mays. Kind of assay: Post-emergence herbicidal activity, ZEAMX. Particulars: application post-emergence, 1000 g/Ha, evaluated after 13 days; 5=total damage to plant, 0=no damage to plant. How it is done: as §2

For `CON1C(=O)N(c2ncc(C(F)(F)F)s2)C(O)C1C` (centres unmarked) [Compound B7], the ECHCG damage score is listed as 4 in [1] and 5 in assay [3]. Moreover, the SETFA damage score in [2] and in assay [10] was 5 each time. In addition, the AMARE damage score in [4] and in assay [11] was 5 throughout. Moreover, the ZEAMX damage score is recorded as 3 in [5] and 4 in [12]. The figures for the LOLPE damage score in assay [6] and in assay [8] were 5 and 4, respectively. The ABUTH damage score in assay [7] and in [9] was 5 in each case.
As to `CCOC1C(O)N(c2ncc(C(F)(F)F)s2)C(=O)N1C` (centres unmarked) [Compound A2, 5-ethoxy-4-hydroxy-1-methyl-3-[5-(trifluoromethyl)thiazol-2-yl]imidazolidin-2-one], the ECHCG damage score in assay [1] and in assay [3] was 5 each time. Also, the SETFA damage score in [2] and in assay [10] was 5 each time. In addition, the AMARE damage score in [4] and in assay [11] was 5 in each case. Further, the ZEAMX damage score is listed as 3 in assay [5] and 5 in [12]. For the same compound, the LOLPE damage score in assay [6] and in [8] was 5 each time. Besides, the ABUTH damage score in assay [7] and in [9] was 5 throughout.
Consider `CN1CC(O)N(c2ncc(C(F)(F)F)s2)C1=O` (centres unmarked) [Compound A5, 4-hydroxy-1-methyl-3-[5-(trifluoromethyl)thiazol-2-yl]imidazolidin-2-one], for which the figures for the ECHCG damage score in assay [1] and in assay [3] were 4 and 5, respectively. For the same compound, the SETFA damage score in [2] and in assay [10] was 5 throughout. For the same compound, the AMARE damage score in assay [4] and in [11] was 5 throughout. Also, the ZEAMX damage score was 2 in assay [5] and 5 in [12]. Further, the LOLPE damage score in assay [6] and in [8] was 5 in each case. In addition, the ABUTH damage score in [7] and in assay [9] was 5 in each case.
Consider `CN1CC(O)N(c2ncc(C(C)(C)C)s2)C1=O` (centres unmarked) [Compound A7], for which the ECHCG damage score is 4 in assay [1] and 5 in assay [3]. Besides, the SETFA damage score in assay [2] and in assay [10] was 5 each time. Further, the AMARE damage score in [4] and in assay [11] was 5 each time. Moreover, the ZEAMX damage score in assay [5] amounted to 3; in assay [12], 5. The LOLPE damage score in assay [6] was 5; in [8], 4. Moreover, the ABUTH damage score in [7] and in assay [9] was 5 throughout.
Turning to `CCCOC1C(O)N(c2ncc(C(F)(F)F)s2)C(=O)N1C` (centres unmarked) [Compound A1], the ECHCG damage score in [1] and in [3] was 5 throughout. Moreover, the SETFA damage score in assay [2] came to 5; in [10] it was 4. Also, the AMARE damage score in assay [4] and in assay [11] was 5 each time. The ZEAMX damage score in assay [5] is 1; in [12], 3. Further, the LOLPE damage score is recorded as 5 in assay [6] and 4 in [8]. For the same compound, the ABUTH damage score in [7] and in [9] was 5 in each case.
For `CCO[C@@H]1C(O)N(c2ncc(C(F)(F)F)s2)C(=O)N1C` (some centres unmarked) [Compound A8], the ECHCG damage score in assay [1] and in [3] was 5 throughout. The SETFA damage score in [2] and in assay [10] was 5 throughout. For the same compound, the AMARE damage score in assay [4] and in assay [11] was 5 each time. Besides, the ZEAMX damage score in assay [5] is on record as 3; in [12] it was 5. In addition, the LOLPE damage score in assay [6] worked out at 5; in [8] it was 4. The ABUTH damage score in assay [7] and in [9] was 5 in each case.
Turning to `CN1C(=O)N(c2ncc(C(F)(F)F)s2)C(O)C1O` (centres unmarked) [Compound A4, 4,5-dihydroxy-1-methyl-3-[5-(trifluoromethyl)thiazol-2-yl]imidazolidin-2-one], the ECHCG damage score in assay [1] and in [3] was 5 in each case. In addition, the SETFA damage score worked out at 5 in [2] and 4 in [10]. The AMARE damage score in assay [4] and in assay [11] was 5 throughout. In addition, the values for the ZEAMX damage score in [5] and in assay [12] were 3 and 4, respectively. The figures for the LOLPE damage score in [6] and in assay [8] were 5 and 4, respectively. The ABUTH damage score in assay [7] and in assay [9] was 5 throughout.
Take `COC1C(O)N(c2ncc(C(F)(F)F)s2)C(=O)N1C` (centres unmarked) [Compound A3]: the ECHCG damage score in [1] and in [3] was 5 each time. Moreover, the SETFA damage score in [2] and in assay [10] was 5 each time. Moreover, the AMARE damage score in [4] and in assay [11] was 5 each time. Besides, the ZEAMX damage score in assay [5] was 2; in [12], 4. Further, the LOLPE damage score in assay [6] and in assay [8] was 5 each time. Moreover, the ABUTH damage score in [7] and in assay [9] was 5 in each case.
Take `CCOC1C(O)N(c2ncc(C(C)C)s2)C(=O)N1C` (centres unmarked) [Compound A10]: the ECHCG damage score in assay [1] was 0; in assay [3], 2. For the same compound, the SETFA damage score in assay [2] worked out at 2; in assay [10], 0. Further, the AMARE damage score in [4] was determined as 3; in assay [11], 4. Besides, the ZEAMX damage score in [5] and in assay [12] was 0 throughout. Further, the ABUTH damage score is on record as 0 in assay [7] and 4 in assay [9]. In [8], this compound displayed an LOLPE damage score of 0.
On to `CCO[C@H]1C(O)N(c2ncc(C(F)(F)F)s2)C(=O)N1C` (some centres unmarked) [Compound A9], for which the ECHCG damage score in assay [1] amounted to 1; in assay [3], 2. Moreover, the SETFA damage score in [2] and in [10] was 4 each time. Besides, the AMARE damage score in [4] and in assay [11] was 5 throughout. Moreover, the values for the ZEAMX damage score in assay [5] and in assay [12] were 1 and 2, respectively. Further, the LOLPE damage score is given as 3 in assay [6] and 2 in assay [8]. Moreover, the ABUTH damage score in assay [7] is on record as 2; in assay [9], 3.
Consider `C[C@@H]1C(O)N(c2ncc(C(F)(F)F)s2)C(=O)N1C` (mixture of isomers) [Compound A6], for which the ECHCG damage score in [1] and in [3] was 5 in each case. Further, the SETFA damage score in [2] and in assay [10] was 5 throughout. Moreover, the AMARE damage score in assay [4] and in [11] was 5 each time. Further, the ZEAMX damage score in [5] amounted to 4; in assay [12] it was 5. For the same compound, the LOLPE damage score in assay [6] and in assay [8] was 5 in each case. The ABUTH damage score in assay [7] and in [9] was 5 in each case.
